Data on 28 compounds can be found in patent US20240327393A1 (SIRONAX LTD., priority 2021, published 2024).

Read-outs that look alike come from different tables or passages of the source.

This assay concerns HT-1080 (ATCC, CCL-121) cells. Put plainly: HT-1080 cell viability assay with ferroptosis inducer RSL3 (Cell Titer-Glo). Format: cell-based. Particulars: Homo sapiens, HT-1080 cells treated with RSL3, 3-fold, 10-point dilution, 1.1 μM highest concentration, read-out: EC50 (nM), ferroptosis inhibitory activity. Put shortly: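 HT-1080 cells (6000 per well) were cultured overnight at 37 °C, then co-treated with RSL3 and compound in a 3-fold, 10-point series topping at 1.1 μM. Viability was read by CellTiter-Glo luminescence and normalized to untreated controls. EC50 came from a sigmoidal non-linear regression fit.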

Consider `Cc1cc(N2CCC(C(F)(F)F)CC2)ccc1Nc1ccc2c(C(N)=O)cn(C)c2c1` [Compound 551, 1-methyl-6-((2-methyl-4-(4-(trifluoromethyl)piperidin-1-yl)phenyl)amino)-1H-indole-3-carboxamide], for which the EC50 (Table 3) is 0.1 to 100 nM. Turning to `C[C@H]1CN(c2ccc(Nc3ccc4c(c3)OCC(=O)N4)cc2)CCN1CC(F)(F)F` [Compound 581, (S)-7-((4-(3-methyl-4-(2,2,2-trifluoroethyl)piperazin-1-yl)phenyl)amino)-2H-benzo[b][1,4]oxazin-3(4H)-one], the EC50 (Table 3) lay in the range of 0.1 to 100 nM. As to `CCN1Cc2ccc(Nc3ccc(N4CCC(C(F)(F)F)CC4)cc3)cc2C1` [Compound 175, 2-ethyl-N-(4-(4-(trifluoromethyl)piperidin-1-yl)phenyl)isoindolin-5-amine], the EC50 (Table 2) lay in the range of 0.1 to 100 nM. As to `CN1CCc2cc(Nc3ccc4c(c3)n(C)c(=O)n4C)ccc21` [Compound 289, 1,3-dimethyl-5-((1-methylindolin-5-yl)amino)-1,3-dihydro-2H-benzo[d]imidazol-2-one], where the note is “Table 2”, the EC50 was 0.1 to 100 nM. Consider `O=C1c2ccc(Nc3ccc(N4CCC(C(F)(F)F)CC4)cc3)cc2CN1CC1CC1` [Compound 179, 2-(cyclopropylmethyl)-5-((4-(4-(trifluoromethyl)piperidin-1-yl)phenyl)amino)isoindolin-1-one], for which, under “Table 2”, the EC50 lay in the range of 0.1 to 100 nM. For `Cc1cc(N2CCC(C(F)(F)F)CC2)ncc1Nc1ccc2c(c1)OCC(=O)N2C` [Compound 452, 4-methyl-7-((4-methyl-6-(4-(trifluoromethyl)piperidin-1-yl)pyridin-3-yl)amino)-2H-benzo[b][1,4]oxazin-3(4H)-one], the EC50 (Table 3) lay in the range of 0.1 to 100 nM. As to `Cc1nc(=O)n(C)c2ccc(Nc3ccc(N4CCC(C(F)(F)F)CC4)cc3)cc12` [Compound 113, 1,4-dimethyl-6-((4-(4-(trifluoromethyl)piperidin-1-yl)phenyl)amino) quinazolin-2(1H)-one], the EC50 (Table 2) fell in the range of 0.1 to 100 nM. Consider `CC1CCN(c2ccc(Nc3ccc4nnn(C)c4c3)cc2)CC1` [Compound 321, 1-methyl-N-(4-(4-methylpiperidin-1-yl)phenyl)-1H-benzo[d][1,2,3]triazol-6-amine], for which the EC50 (Table 2) fell in the range of 0.1 to 100 nM. On to `Cc1cc(N2CCC(C(F)(F)F)C2)ccc1Nc1ccc2c(c1)OCCC(=O)N2` (stereo not shown) [Compound 628, 8-((2-methyl-4-(3-(trifluoromethyl)pyrrolidin-1-yl)phenyl)amino)-2,3-dihydrobenzo[b][1,4]oxazepin-4(5H)-one], for which, where the note is “Table 3”, the EC50 fell in the range of 0.1 to 100 nM. For the compound `CCn1c(=O)n(CC)c2cc(Nc3ccc(N4CCC(C)CC4)cc3)ccc21` [Compound 328, 1,3-diethyl-5-((4-(4-methylpiperidin-1-yl)phenyl)amino)-1,3-dihydro-2H-benzo[d]imidazol-2-one], for the setting “Table 2”, the EC50 fell in the range of 0.1 to 100 nM. On the same count and under the same terms, the figure for `COCCCN1C(=O)COc2cc(Nc3ccc(N4CCC(C(F)(F)F)CC4)cc3)ccc21` [Compound 10, 4-(3-methoxypropyl)-7-((4-(4-(trifluoromethyl)piperidin-1-yl)phenyl)amino)-2H-benzo[b][1,4]oxazin-3(4H)-one] is 0.1 to 100 nM. Turning to `CCn1c(=O)cnc2cc(Nc3ccc(N4CCC(C(F)(F)F)CC4)cc3)ccc21` [Compound 116, 1-ethyl-6-((4-(4-(trifluoromethyl)piperidin-1-yl)phenyl)amino) quinoxalin-2(1H)-one], the EC50 (Table 2) fell in the range of 0.1 to 100 nM. Regarding `CC(C)(C)c1ccc(Nc2ccc3c(c2)OCC(=O)N3)cc1` [Compound 135, 7-((4-(tert-butyl)phenyl)amino)-2H-benzo[b][1,4]oxazin-3(4H)-one], under “Table 2”, the EC50 lay in the range of 0.1 to 100 nM. On to `CN1C(=O)c2ccc(Nc3ccc(N4CCC(C(F)(F)F)CC4)cc3)cc2C1=O` [Compound 201, 2-methyl-5-((4-(4-(trifluoromethyl)piperidin-1-yl)phenyl)amino) isoindoline-1,3-dione], for which the concentration for a half-maximal effect (EC50) (Table 2) fell in the range of 0.1 to 100 nM. On to `CCC(C)(C)c1ccc(Nc2ccc3c(c2)n(C)c(=O)n3C)cc1` [Compound 411, 1,3-dimethyl-5-((4-(tert-pentyl)phenyl)amino)-1,3-dihydro-2H-benzo[d]imidazol-2-one], for which the EC50 (Table 2) is 0.1 to 100 nM. Consider `CNCCCN1C(=O)COc2cc(Nc3ccc(N4CC(C)OC(C)C4)cc3)ccc21` (stereo not shown) [Compound 45, 7-((4-(2,6-dimethylmorpholino)phenyl)amino)-4-(3-(methylamino)propyl)-2H-benzo[b][1,4]oxazin-3(4H)-one], for which the EC50 (Table 2) is 0.1 to 100 nM. For `Cn1c(=O)n(C)c2cc(Nc3ccc(-n4ccnc4)cc3)ccc21` [Compound 305, 5-((4-(1H-imidazol-1-yl)phenyl)amino)-1,3-dimethyl-1,3-dihydro-2H-benzo[d]imidazol-2-one], the EC50 (Table 2) was 100 to 1000 nM.

On to `Cc1c(Nc2ccc3c(c2)OCC(=O)N3)ccc(N2CCC(C(F)(F)F)CC2)c1F` [Compound 454, 7-((3-fluoro-2-methyl-4-(4-(trifluoromethyl)piperidin-1-yl)phenyl)amino)-2H-benzo[b][1,4]oxazin-3(4H)-one], for which the EC50 (Table 3) lay within 0.1 to 100 nM. `CN1Cc2cc(Nc3cccc(N(C)C)c3)ccc2C1=O` [Compound 234, 5-((3-(dimethylamino)phenyl)amino)-2-methylisoindolin-1-one]: where the note is “Table 2”, the EC50 is 0.1 to 100 nM. For `Cc1cc(N2CC(OC(F)F)C2)ccc1Nc1ccc2c(c1)OCC(=O)N2` [Compound 652, 7-[4-[3-(difluoromethoxy)azetidin-1-yl]-2-methyl-anilino]-4H-1,4-benzoxazin-3-one], the EC50 (Table 3) fell in the range of 0.1 to 100 nM. In the case of `CCC(C)(C)Nc1ccc(Nc2ccc3c(c2)OCC(=O)N3)c(C)c1` [Compound 659, 7-[4-(1,1-dimethylpropylamino)-2-methyl-anilino]-4H-1,4-benzoxazin-3-one], under “Table 3”, the EC50 was 0.1 to 100 nM. Turning to `COC1(C)CN(c2ccc(Nc3ccc4c(c3)OCC(=O)N4)c(C)c2)C1` [Compound 639, 7-((4-(3-methoxy-3-methylazetidin-1-yl)-2-methylphenyl)amino)-2H-benzo[b][1,4] oxazin-3(4H)-one], for the setting “Table 3”, the EC50 was in the range of 0.1 to 100 nM. In the case of `COc1cc(Nc2ccc3c(c2)OCC(=O)N3)cnc1N1CCC(C(F)(F)F)CC1` [Compound 131, 7-((5-methoxy-6-(4-(trifluoromethyl)piperidin-1-yl)pyridin-3-yl)amino)-2H-benzo[b][1,4]oxazin-3(4H)-one], for the setting “Table 2”, the EC50 was 0.1 to 100 nM. Regarding `Cn1ccc2cc(Nc3ccc(N4CCC(C(F)(F)F)CC4)cc3)ccc21` [Compound 347, 1-methyl-N-(4-(4-(trifluoromethyl)piperidin-1-yl)phenyl)-1H-indol-5-amine], the EC50 (Table 2) was 0.1 to 100 nM. Consider `CC1=NCC(=O)Nc2ccc(Nc3ccc(N4CCC(C(F)(F)F)CC4)cc3C)cc21` [Compound 656, 5-methyl-7-[2-methyl-4-[4-(trifluoromethyl)-1-piperidyl]anilino]-1,3-dihydro-1,4-benzodiazepin-2-one], for which, where the note is “Table 3”, the EC50 fell in the range of 0.1 to 100 nM. With `Cc1cc(N2CCOC(C)C2)ccc1Nc1ccc2c(c1)CCNC2` (stereo not shown) [Compound 529, N-(2-methyl-4-(2-methylmorpholino)phenyl)-1,2,3,4-tetrahydroisoquinolin-6-amine], for the setting “Table 3”, the EC50 was in the range of 0.1 to 100 nM. Consider `CN1C(=O)COc2cc(Nc3ccc(N4C[C@@H]5C[C@H]4CO5)c(F)c3)ccc21` [Compound 97, 7-((4-((1S,4S)-2-oxa-5-azabicyclo[2.2.1]heptan-5-yl)-3-fluorophenyl)amino)-4-methyl-2H-benzo[b][1,4]oxazin-3(4H)-one], for which the EC50 (Table 2) was in the range of 0.1 to 100 nM. Turning to `CN1CCN(CC(=O)N2Cc3ccc(Nc4ccc(N5CCC(C(F)(F)F)CC5)c(F)c4)cc3C2)CC1` [Compound 164], the concentration for a half-maximal effect (EC50) (Table 2) is 0.1 to 100 nM.

The term EC50 denotes the midpoint of the concentration-response curve.
